# In PubChem BioAssay AID602351 (The Scripps Research Institute Molecular Screening Center, 2012):
# Activity calls are given as the source filed them. The rule behind the calls is not given here.
# Key:
# Test in all cases: mouse tissue hydrolase off-target profiling – ABPP MudPIT, LC-MS, ABHD6 analysis, in vivo study for DAGLb inhibitor project, late-stage follow-up (AID 602351)
# [1] = test system: Abhd11; conditions: serine hydrolase spectral counts, stronger effect = lower value
# [2] = test system: Abhd12; conditions: serine hydrolase spectral counts, stronger effect = lower value
# [3] = test system: Acot1; conditions: serine hydrolase spectral counts, stronger effect = lower value
# [4] = test system: Acot2; conditions: serine hydrolase spectral counts, stronger effect = lower value
# [5] = target: Acyl-protein thioesterase 1 (Mus musculus) (UniProt P97823); conditions: serine hydrolase spectral counts
# Chain of Acyl-protein thioesterase 1 (Mus musculus) (P97823 whole entry, looked up): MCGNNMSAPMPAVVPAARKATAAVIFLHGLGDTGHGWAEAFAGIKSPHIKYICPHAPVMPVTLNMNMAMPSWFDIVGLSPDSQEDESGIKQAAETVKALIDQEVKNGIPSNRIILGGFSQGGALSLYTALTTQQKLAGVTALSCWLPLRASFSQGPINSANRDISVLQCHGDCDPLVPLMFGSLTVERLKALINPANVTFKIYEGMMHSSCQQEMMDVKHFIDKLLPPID
# [6] = test system: Aoah; conditions: serine hydrolase spectral counts, stronger effect = lower value
# [7] = test system: Apeh; conditions: serine hydrolase spectral counts, stronger effect = lower value
# [8] = test system: Ctsa; conditions: serine hydrolase spectral counts, stronger effect = lower value
# [9] = test system: Ctsg; conditions: serine hydrolase spectral counts, stronger effect = lower value
# [10] = target: Diacylglycerol lipase-beta (Mus musculus) (UniProt Q91WC9); conditions: serine hydrolase spectral counts, Daglb, stronger effect = lower value
# Chain of Diacylglycerol lipase-beta (Mus musculus) (Q91WC9 whole entry, looked up): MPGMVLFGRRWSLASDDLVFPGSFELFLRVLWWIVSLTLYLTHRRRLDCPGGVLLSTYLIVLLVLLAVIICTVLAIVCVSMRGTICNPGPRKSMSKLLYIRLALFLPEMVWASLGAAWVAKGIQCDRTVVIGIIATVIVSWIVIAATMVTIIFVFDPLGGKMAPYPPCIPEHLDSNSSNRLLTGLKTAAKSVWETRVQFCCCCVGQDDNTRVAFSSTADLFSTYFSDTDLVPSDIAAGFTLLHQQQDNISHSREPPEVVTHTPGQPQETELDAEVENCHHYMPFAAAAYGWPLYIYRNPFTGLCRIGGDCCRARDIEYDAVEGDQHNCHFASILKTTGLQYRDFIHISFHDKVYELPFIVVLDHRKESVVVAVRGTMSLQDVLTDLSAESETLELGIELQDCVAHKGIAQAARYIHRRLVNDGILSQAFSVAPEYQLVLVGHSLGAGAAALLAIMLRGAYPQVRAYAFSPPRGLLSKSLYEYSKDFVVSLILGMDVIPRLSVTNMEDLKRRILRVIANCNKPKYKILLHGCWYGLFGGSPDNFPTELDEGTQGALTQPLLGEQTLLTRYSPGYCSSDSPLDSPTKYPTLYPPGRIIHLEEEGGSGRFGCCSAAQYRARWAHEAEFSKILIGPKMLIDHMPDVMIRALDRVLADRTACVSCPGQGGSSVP
# [11] = test system: Dpp4; conditions: serine hydrolase spectral counts, stronger effect = lower value
# [12] = test system: Dpp7; conditions: serine hydrolase spectral counts, stronger effect = lower value
# [13] = test system: Dpp8; conditions: serine hydrolase spectral counts, stronger effect = lower value
# [14] = test system: Dpp9; conditions: serine hydrolase spectral counts, stronger effect = lower value
# [15] = test system: Elane; conditions: serine hydrolase spectral counts, stronger effect = lower value
# [16] = test system: Fam108b; conditions: serine hydrolase spectral counts, stronger effect = lower value
# [17] = test system: Fasn; conditions: serine hydrolase spectral counts, stronger effect = lower value
# [18] = test system: Gzma; conditions: serine hydrolase spectral counts, stronger effect = lower value
# [19] = test system: Iah1; conditions: serine hydrolase spectral counts, stronger effect = lower value
# [20] = test system: KIAA1363; conditions: serine hydrolase spectral counts, stronger effect = lower value
# [21] = test system: Lipa; conditions: serine hydrolase spectral counts, stronger effect = lower value
# [22] = test system: Lipe; conditions: serine hydrolase spectral counts, stronger effect = lower value
# [23] = test system: Lpl; conditions: serine hydrolase spectral counts, stronger effect = lower value
# [24] = test system: Lypla2; conditions: serine hydrolase spectral counts, stronger effect = lower value
# [25] = test system: Magl; conditions: serine hydrolase spectral counts, stronger effect = lower value
# [26] = target: Monoacylglycerol lipase ABHD6 (Mus musculus) (UniProt Q8R2Y0); conditions: serine hydrolase spectral counts, stronger effect = lower value
# Chain of Monoacylglycerol lipase ABHD6 (Mus musculus) (Q8R2Y0 whole entry, looked up): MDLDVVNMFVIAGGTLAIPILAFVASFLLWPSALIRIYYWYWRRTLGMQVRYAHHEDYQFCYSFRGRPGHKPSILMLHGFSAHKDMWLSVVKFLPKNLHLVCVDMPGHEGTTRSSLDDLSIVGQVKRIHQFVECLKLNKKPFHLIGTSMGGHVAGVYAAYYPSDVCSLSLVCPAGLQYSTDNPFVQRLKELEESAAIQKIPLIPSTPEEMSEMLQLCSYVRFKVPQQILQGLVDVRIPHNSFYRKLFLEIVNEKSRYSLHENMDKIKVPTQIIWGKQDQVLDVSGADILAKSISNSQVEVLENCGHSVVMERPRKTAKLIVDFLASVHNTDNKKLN
# [27] = test system: Pafah1b2; conditions: serine hydrolase spectral counts, stronger effect = lower value
# [28] = test system: Pafah1b3; conditions: serine hydrolase spectral counts, stronger effect = lower value
# [29] = target: Palmitoyl-protein thioesterase ABHD10, mitochondrial (Mus musculus) (UniProt Q6PE15); conditions: serine hydrolase spectral counts, stronger effect = lower value
# Chain of Palmitoyl-protein thioesterase ABHD10, mitochondrial (Mus musculus) (Q6PE15 whole entry, looked up): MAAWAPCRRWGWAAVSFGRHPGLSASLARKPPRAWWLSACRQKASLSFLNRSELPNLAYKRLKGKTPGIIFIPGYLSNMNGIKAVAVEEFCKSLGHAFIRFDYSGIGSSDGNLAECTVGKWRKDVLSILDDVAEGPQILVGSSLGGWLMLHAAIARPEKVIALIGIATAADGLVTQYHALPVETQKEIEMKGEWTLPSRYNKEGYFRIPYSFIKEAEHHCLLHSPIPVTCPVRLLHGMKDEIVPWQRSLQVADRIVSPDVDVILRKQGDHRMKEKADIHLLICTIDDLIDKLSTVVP
# [30] = test system: Pla2g15; conditions: serine hydrolase spectral counts, stronger effect = lower value
# [31] = target: Platelet-activating factor acetylhydrolase (Mus musculus) (UniProt Q60963); conditions: serine hydrolase spectral counts
# Chain of Platelet-activating factor acetylhydrolase (Mus musculus) (Q60963 whole entry, looked up): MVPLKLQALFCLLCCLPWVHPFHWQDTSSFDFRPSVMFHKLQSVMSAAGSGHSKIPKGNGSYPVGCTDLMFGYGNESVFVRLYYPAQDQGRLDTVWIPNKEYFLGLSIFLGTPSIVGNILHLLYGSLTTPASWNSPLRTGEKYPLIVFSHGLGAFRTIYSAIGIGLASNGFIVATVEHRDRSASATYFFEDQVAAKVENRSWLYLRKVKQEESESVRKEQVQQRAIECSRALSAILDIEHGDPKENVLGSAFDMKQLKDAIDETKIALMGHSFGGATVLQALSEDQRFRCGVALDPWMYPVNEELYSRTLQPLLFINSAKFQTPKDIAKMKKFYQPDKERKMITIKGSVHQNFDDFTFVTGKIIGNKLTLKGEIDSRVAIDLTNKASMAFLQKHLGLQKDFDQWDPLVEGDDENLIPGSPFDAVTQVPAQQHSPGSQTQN
# [32] = target: Platelet-activating factor acetylhydrolase 2, cytoplasmic (Mus musculus) (UniProt Q8VDG7); conditions: serine hydrolase spectral counts
# Chain of Platelet-activating factor acetylhydrolase 2, cytoplasmic (Mus musculus) (Q8VDG7 whole entry, looked up): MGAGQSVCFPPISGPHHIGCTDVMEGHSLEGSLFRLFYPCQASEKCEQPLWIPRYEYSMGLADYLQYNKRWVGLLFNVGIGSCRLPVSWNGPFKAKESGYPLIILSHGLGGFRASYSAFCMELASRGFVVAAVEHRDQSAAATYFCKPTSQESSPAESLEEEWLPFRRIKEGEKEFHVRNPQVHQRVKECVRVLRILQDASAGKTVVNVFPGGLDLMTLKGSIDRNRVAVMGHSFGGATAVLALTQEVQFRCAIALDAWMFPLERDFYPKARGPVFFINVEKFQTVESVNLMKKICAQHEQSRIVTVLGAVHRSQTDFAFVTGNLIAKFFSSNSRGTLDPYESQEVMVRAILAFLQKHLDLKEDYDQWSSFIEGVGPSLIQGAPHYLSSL
# [33] = test system: Pnpla6; conditions: serine hydrolase spectral counts, stronger effect = lower value
# [34] = test system: Pnpla7; conditions: serine hydrolase spectral counts, stronger effect = lower value
# [35] = test system: Ppt2; conditions: serine hydrolase spectral counts, stronger effect = lower value
# [36] = test system: Prcp; conditions: serine hydrolase spectral counts, stronger effect = lower value
# [37] = test system: Prepl; conditions: serine hydrolase spectral counts, stronger effect = lower value
# [38] = test system: Tpp2; conditions: serine hydrolase spectral counts, stronger effect = lower value
# [39] = significance of hydrolase inhibition
structure (smiles),measurement,setting,value
COc1ccc(-c2ccc(-c3cn(C(=O)N4CCCCC4c4ccccc4)nn3)cc2)cc1 (stereo unspecified),"spectral counts, test compound",[1],6.67 (inactive)
same,p value vs vehicle,[1]; [39],0.422
same,"spectral counts, test compound",[2],24.3 (inactive)
same,p value vs vehicle,[2]; [39],0.363
same,"spectral counts, test compound",[3],25.7 (inactive)
same,p value vs vehicle,[3]; [39],0.22
same,"spectral counts, test compound",[4],41.7 (inactive)
same,p value vs vehicle,[4]; [39],0.041
same,"spectral counts, test compound","[5]; Lypla1, stronger effect = lower value",51.7 (inactive)
same,p value vs vehicle,"[5]; Lypla1, significance of hydrolase inhibition, stronger effect = lower value",0.676
same,"spectral counts, test compound",[6],14.7 (inactive)
same,p value vs vehicle,[6]; [39],0.53
same,"spectral counts, test compound",[7],148 (inactive)
same,p value vs vehicle,[7]; [39],0.187
same,"spectral counts, test compound",[8],86.7 (inactive)
same,p value vs vehicle,[8]; [39],0.035
same,"spectral counts, test compound",[9],36.3 (inactive)
same,p value vs vehicle,[9]; [39],0.101
same,"spectral counts, test compound",[10],13.7 (inactive)
same,p value vs vehicle,[10]; [39],0.28
same,"spectral counts, test compound",[11],42 (inactive)
same,p value vs vehicle,[11]; [39],0.1
same,"spectral counts, test compound",[12],16.3 (inactive)
same,p value vs vehicle,[12]; [39],0.826
same,"spectral counts, test compound",[13],31 (inactive)
same,p value vs vehicle,[13]; [39],0.639
same,"spectral counts, test compound",[14],62 (inactive)
same,p value vs vehicle,[14]; [39],0.978
same,"spectral counts, test compound",[15],28.3 (inactive)
same,p value vs vehicle,[15]; [39],0.242
same,"spectral counts, test compound",[16],13.7 (inactive)
same,p value vs vehicle,[16]; [39],0.018
same,"spectral counts, test compound",[17],75.7 (inactive)
same,p value vs vehicle,[17]; [39],0.026
same,"spectral counts, test compound",[18],5.33 (inactive)
same,p value vs vehicle,[18]; [39],0.275
same,"spectral counts, test compound",[19],5.67 (inactive)
same,p value vs vehicle,[19]; [39],0.442
same,"spectral counts, test compound",[20],167 (inactive)
same,p value vs vehicle,[20]; [39],0.699
same,"spectral counts, test compound",[21],3 (inactive)
same,p value vs vehicle,[21]; [39],0.482
same,"spectral counts, test compound",[22],39.7 (inactive)
same,p value vs vehicle,[22]; [39],0.014
same,"spectral counts, test compound",[23],58.3 (inactive)
same,p value vs vehicle,[23]; [39],0.211
same,"spectral counts, test compound",[24],89.3 (inactive)
same,p value vs vehicle,[24]; [39],0.688
same,"spectral counts, test compound",[25],18 (inactive)
same,p value vs vehicle,[25]; [39],0.937
same,"spectral counts, test compound",[26],0.667
same,p value vs vehicle,[26]; [39],0.006
same,"spectral counts, test compound",[27],28.3 (inactive)
same,p value vs vehicle,[27]; [39],0.6
same,"spectral counts, test compound",[28],21.7 (inactive)
same,p value vs vehicle,[28]; [39],0.409
same,"spectral counts, test compound",[29],13.3 (inactive)
same,p value vs vehicle,[29]; [39],0.911
same,"spectral counts, test compound",[30],29 (inactive)
same,p value vs vehicle,[30]; [39],0.012
same,"spectral counts, test compound","[31]; Pla2g7, stronger effect = lower value",17.7 (inactive)
same,p value vs vehicle,"[31]; Pla2g7, significance of hydrolase inhibition, stronger effect = lower value",0.115
same,"spectral counts, test compound","[32]; Pafah2, stronger effect = lower value",16 (inactive)
same,p value vs vehicle,"[32]; Pafah2, significance of hydrolase inhibition, stronger effect = lower value",0.202
same,"spectral counts, test compound",[33],4 (inactive)
same,p value vs vehicle,[33]; [39],0.028
same,"spectral counts, test compound",[34],34 (inactive)
same,p value vs vehicle,[34]; [39],0.656
same,"spectral counts, test compound",[35],5.67 (inactive)
same,p value vs vehicle,[35]; [39],0.451
same,"spectral counts, test compound",[36],99.7 (inactive)
same,p value vs vehicle,[36]; [39],0.659
same,"spectral counts, test compound",[37],4.33 (inactive)
same,p value vs vehicle,[37]; [39],0.101
same,"spectral counts, test compound",[38],21 (inactive)
same,p value vs vehicle,[38]; [39],0.018
